The record followed here is ChEMBL document CHEMBL5365500, “Development and Antibacterial Properties of 4-[4-(Anilinomethyl)-3-phenylpyrazol-1-yl]benzoic Acid Derivatives as Fatty Acid Biosynthesis Inhibitors” (J Med Chem, 2023).

In brackets after ≈: the same amount, converted by molar mass.

Data set [1] has as its system Staphylococcus aureus. Put plainly: Antimicrobial activity against Staphylococcus aureus ATCC 25923 assessed as inhibition of visible growth measured after 20 to 24 hrs incubation by CLSI method. As to conditions: time 20-24 hrs. It is filed as functional.
In data set [2] the test system is Enterococcus faecalis. The data set is described as follows: Antimicrobial activity against antibiotic-resistant Enterococcus faecalis ATCC 51299 assessed as inhibition of visible growth measured after 20 to 24 hrs incubation by CLSI method. It is filed as functional. To be noted: time 20-24 hrs.
For data set [3], the system named is Staphylococcus epidermidis. The data set is described as follows: Antimicrobial activity against antibiotic-resistant Staphylococcus epidermidis ATCC 700296 assessed as inhibition of visible growth measured after 20 to 24 hrs incubation by CLSI method. The data set is classed as functional. To be noted: time 20-24 hrs.
Data set [4] concerns Enterococcus faecium. The data set is described as follows: Antimicrobial activity against antibiotic-resistant Enterococcus faecium ATCC 700221 assessed as inhibition of visible growth measured after 20 to 24 hrs incubation by CLSI method. It is filed as functional. As to conditions: time 20-24 hrs.
In data set [5] the test system is Enterococcus faecalis. The data set is described as follows: Antimicrobial activity against antibiotic-susceptible Enterococcus faecalis ATCC 29212 assessed as inhibition of visible growth measured after 20 to 24 hrs incubation by CLSI method. It is filed as functional. To be noted: time 20-24 hrs.
Data set [6] concerns Staphylococcus aureus. Put plainly: Antimicrobial activity against antibiotic-resistant Staphylococcus aureus ATCC 33592 assessed as inhibition of visible growth measured after 20 to 24 hrs incubation by CLSI method. As to conditions: time 20-24 hrs. The data set is classed as functional.
In data set [7] the test system is Staphylococcus aureus. Put plainly: Antimicrobial activity against antibiotic-resistant Staphylococcus aureus ATCC 33591 assessed as inhibition of visible growth measured after 20 to 24 hrs incubation by CLSI method. The data set is classed as functional. As to conditions: time 20-24 hrs.
The subject of data set [8] is Staphylococcus aureus. The data set is described as follows: Antimicrobial activity against antibiotic-resistant Staphylococcus aureus ATCC BAA-2312 assessed as inhibition of visible growth measured after 20 to 24 hrs incubation by CLSI method. It is filed as functional. As to conditions: time 20-24 hrs.
The test system of data set [9] is Staphylococcus aureus. The data set is described as follows: In vivo antimicrobial activity against Staphylococcus aureus UAMS-1 infected in Caenorhabditis elegans AU37 nematodes assessed as viability of nematodes incubated for 5 days by susceptibility test. It is filed as functional. To be noted: UAMS-1, 120 h, time 5 day.
The test system of data set [10] is Staphylococcus aureus. The data set is described as follows: In vivo antimicrobial activity against Staphylococcus aureus Newman infected in Caenorhabditis elegans AU37 nematodes assessed as viability of nematodes incubated for 5 days by susceptibility test. The data set is classed as functional. As to conditions: 120 h, time 5 day.
Data set [11] relates to Bacillus subtilis. The data set is described as follows: Antimicrobial activity against antibiotic-resistant Bacillus subtilis ATCC 6623 assessed as inhibition of visible growth measured after 20 to 24 hrs incubation by CLSI method. It is filed as functional. As to conditions: time 20-24 hrs.
Data set [12] relates to HEK293. The data set is described as follows: Cytotoxicity against human HEK293 cells assessed as cell viability measured after 24 hrs by resazurin assay. It is filed as toxicity, cell-based. Background: Alamar Blue is a resazurin reagent that responds to reducing activity.
Data set [13] relates to Staphylococcus aureus. The data set is described as follows: In vivo antimicrobial activity against Staphylococcus aureus USA300 infected in Caenorhabditis elegans AU37 nematodes assessed as viability of nematodes incubated for 5 days by susceptibility test. The data set is classed as functional. To be noted: USA300, 120 h, time 5 day.
Data set [14] deals with Staphylococcus aureus. Put plainly: Antimicrobial activity against antibiotic-resistant Staphylococcus aureus ATCC 700699 assessed as inhibition of visible growth measured after 20 to 24 hrs incubation by CLSI method. To be noted: time 20-24 hrs. It is filed as functional.

One may read the MIC as the lowest concentration found to suppress growth. What is called IC50 is the midpoint of a concentration-inhibition curve. As to `O=C(O)c1ccc(-n2cc(CNc3ccc(Br)c(Cl)c3)c(-c3ccc(F)cc3)n2)cc1`, the minimum inhibitory concentration (MIC) is 1 µg/mL (≈ 2 µM) in data set [1]; 8 µg/mL (≈ 16 µM) in data set [2]; 4 µg/mL (≈ 7.99 µM) in [3]; 4 µg/mL (≈ 7.99 µM) in data set [4]; 8 µg/mL (≈ 16 µM) in data set [5]; 1 µg/mL (≈ 2 µM) in data set [6]. Moreover, the MIC was 1 µg/mL (≈ 2 µM) in data set [7]; 1 µg/mL (≈ 2 µM) in [8]; 2 µg/mL (≈ 3.99 µM) in data set [9]; 1 µg/mL (≈ 2 µM) in [10]; 0.5 µg/mL (≈ 0.998 µM) in data set [11]; 2 µg/mL (≈ 3.99 µM) in [13]. In addition, the MIC in [14] was found to be 2 µg/mL (≈ 3.99 µM). In addition, the IC50 in data set [12] worked out at 20 µg/mL (≈ 39.9 µM).
`O=C(O)c1ccc(-n2cc(CNc3ccc(Cl)cc3)c(-c3ccc(F)cc3)n2)cc1`: the MIC in data set [1], in [2], in [3], in data set [4], in data set [5] and in data set [6] was greater than 32 µg/mL throughout. For the same compound, the MIC in data set [7] worked out at 4 µg/mL (≈ 9.48 µM); in [8], 32 µg/mL (≈ 75.9 µM); in [11] it was 4 µg/mL (≈ 9.48 µM); in data set [14], 8 µg/mL (≈ 19 µM).
On to `O=C(O)c1ccc(-n2cc(CNc3cc(F)c(F)c(F)c3)c(-c3ccc(F)cc3)n2)cc1`, for which the minimal inhibitory concentration (MIC) in data set [1] was 32 µg/mL (≈ 72.5 µM); in [2], greater than 32 µg/mL; in data set [3] it was greater than 32 µg/mL; in data set [4], greater than 32 µg/mL; in data set [5], greater than 32 µg/mL; in data set [6], greater than 32 µg/mL. Further, the MIC in [7] is greater than 32 µg/mL; in data set [8] it was greater than 32 µg/mL; in data set [11] it was 4 µg/mL (≈ 9.06 µM); in [14] it was greater than 32 µg/mL.
Consider `O=C(O)c1ccc(-n2cc(CNc3ccc(F)c(Cl)c3)c(-c3ccc(F)cc3)n2)cc1`, for which the MIC was 8 µg/mL (≈ 18.2 µM) in data set [1]; greater than 32 µg/mL in data set [2]; 32 µg/mL (≈ 72.8 µM) in data set [3]; 16 µg/mL (≈ 36.4 µM) in data set [4]; greater than 32 µg/mL in data set [5]; 8 µg/mL (≈ 18.2 µM) in data set [6]. The minimal inhibitory concentration (MIC) in data set [7] turned out to be 2 µg/mL (≈ 4.55 µM); in data set [8] it was 4 µg/mL (≈ 9.09 µM); in data set [11], 2 µg/mL (≈ 4.55 µM); in [14] it was 8 µg/mL (≈ 18.2 µM).
In the case of `O=C(O)c1ccc(-n2cc(CNc3ccc(F)cc3)c(-c3ccc(F)cc3)n2)cc1`, the MIC in data set [1] is 16 µg/mL (≈ 39.5 µM); in data set [2], greater than 32 µg/mL; in data set [3], 32 µg/mL (≈ 78.9 µM); in data set [4], greater than 32 µg/mL; in data set [5], greater than 32 µg/mL; in data set [6], 16 µg/mL (≈ 39.5 µM). The MIC in data set [7] is 16 µg/mL (≈ 39.5 µM); in data set [8], 32 µg/mL (≈ 78.9 µM); in data set [11], 16 µg/mL (≈ 39.5 µM); in data set [14], 16 µg/mL (≈ 39.5 µM).
For the compound `O=C(O)c1ccc(-n2cc(CNc3cc(Cl)c(F)c(Cl)c3)c(-c3cccc(F)c3)n2)cc1`, the MIC amounted to 1 µg/mL (≈ 2.11 µM) in data set [1]; 4 µg/mL (≈ 8.43 µM) in [2]; 2 µg/mL (≈ 4.22 µM) in [3]; 4 µg/mL (≈ 8.43 µM) in data set [4]; 8 µg/mL (≈ 16.9 µM) in [5]; 1 µg/mL (≈ 2.11 µM) in [6]. Moreover, the minimal inhibitory concentration (MIC) is 0.5 µg/mL (≈ 1.05 µM) in data set [7]; 0.5 µg/mL (≈ 1.05 µM) in data set [8]; 1 µg/mL (≈ 2.11 µM) in data set [9]; 1 µg/mL (≈ 2.11 µM) in [10]; 1 µg/mL (≈ 2.11 µM) in [11]; 1 µg/mL (≈ 2.11 µM) in [13]. Further, in data set [14], the MIC was 2 µg/mL (≈ 4.22 µM). Moreover, the IC50 in data set [12] was 20 µg/mL (≈ 42.2 µM).
Turning to `O=C(O)c1ccc(-n2cc(CNc3cc(Cl)c(F)c(Cl)c3)c(-c3ccc(F)c(F)c3)n2)cc1`, the minimum inhibitory concentration (MIC) was found to be 1 µg/mL (≈ 2.03 µM) in [1]; 4 µg/mL (≈ 8.13 µM) in data set [2]; 2 µg/mL (≈ 4.06 µM) in data set [3]; 1 µg/mL (≈ 2.03 µM) in data set [4]; 4 µg/mL (≈ 8.13 µM) in data set [5]; 1 µg/mL (≈ 2.03 µM) in data set [6]. Further, the MIC is 0.25 µg/mL (≈ 0.508 µM) in [7], 0.5 µg/mL (≈ 1.02 µM) in data set [8], 0.5 µg/mL (≈ 1.02 µM) in [11] and 1 µg/mL (≈ 2.03 µM) in data set [14].
